Results: ChEMBL document CHEMBL3399982, “Azachalcones: a new class of potent polyphenol oxidase inhibitors” (Bioorg Med Chem Lett, 2015)

Tests used:
[1] = molecular target: T1, Tyrosinase (Agaricus bisporus) (UniProt O42713); experiment: Inhibition of mushroom tyrosinase assessed as inhibition of L-DOPA oxidase activity; conditions: concentration not given here
T1 sequence (whole entry): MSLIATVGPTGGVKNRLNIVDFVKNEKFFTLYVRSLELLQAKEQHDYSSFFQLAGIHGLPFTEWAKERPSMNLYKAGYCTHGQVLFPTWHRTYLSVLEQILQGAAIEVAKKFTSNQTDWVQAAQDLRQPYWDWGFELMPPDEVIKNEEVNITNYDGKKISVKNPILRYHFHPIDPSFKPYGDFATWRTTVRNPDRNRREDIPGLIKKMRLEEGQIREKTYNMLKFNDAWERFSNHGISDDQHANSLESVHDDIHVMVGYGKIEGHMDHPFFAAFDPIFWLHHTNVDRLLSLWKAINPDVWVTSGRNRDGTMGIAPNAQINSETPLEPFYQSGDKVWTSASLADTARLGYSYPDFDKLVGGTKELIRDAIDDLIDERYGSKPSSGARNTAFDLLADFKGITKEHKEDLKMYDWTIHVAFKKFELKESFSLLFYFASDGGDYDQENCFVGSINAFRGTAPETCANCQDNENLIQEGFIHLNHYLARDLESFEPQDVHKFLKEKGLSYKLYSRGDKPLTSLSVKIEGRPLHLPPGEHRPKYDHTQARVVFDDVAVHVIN

[2] = molecular target: T2, Tyrosinase (Agaricus bisporus, UniProt O42713); experiment: Competitive inhibition of mushroom tyrosinase assessed as inhibition of L-DOPA oxidase activity
T2 sequence (O42713 whole entry): T1 sequence (whole entry)

[3] = molecular target: T2, Tyrosinase

| inhibition [1] [%] | IC50 [2] [µM] | Ki [3] [µM] | SMILES |
| --- | --- | --- | --- |
| 34 | – | – | O=C(/C=C/c1ccccn1)c1ccccc1 |
| 39.7 | – | – | CN(C)c1ccc(/C=C/C(=O)c2ccccn2)cc1 |
| 18 | – | – | O=C(/C=C/c1cccc([N+](=O)[O-])c1)c1ccccc1 |
| 12.3 | – | – | O=C(/C=C/c1cnc2ccccc2c1)c1ccccc1O |
| 27.2 | – | – | CN(C)c1ccc(/C=C/C(=O)c2ccccc2O)cc1 |
| 8.9 | – | – | O=C(/C=C/c1ccc2ccccc2n1)c1ccccc1O |
| 80.2 | 1.7 | 2.62 | Oc1ccccc1C(O)/C=C/c1ccccn1 (configuration not stated) |
| 49.3 | – | – | O=C(/C=C/c1cccnc1)c1ccccc1O |
| 39.7 | – | – | O=C(/C=C/c1ccncc1)c1ccccc1O |
| 42.2 | – | – | O=C(/C=C/c1cccc([N+](=O)[O-])c1)c1ccccc1O |
| 56.8 | – | – | O=C(/C=C/c1ccccn1)c1ccccc1O |
| 57.2 | 2.3 | 8.1 | Oc1ccccc1C(O)/C=C/c1ccncc1 (configuration not stated) |
| 42.7 | – | – | COc1ccc(/C=C/C(=O)c2ccccn2)c(OC)c1 |
